Experimental data reported in US8269005B2 (Sunovion Pharmaceuticals Inc., priority 2007, dated 2012).

Tests used:
[1] = Aqueous solubility (24 hour equilibrated suspension in water, HPLC); format: physicochemical; conditions: for pH measured at saturation: saturated suspension in water
Experimental: The aliquot was diluted and analyzed by HPLC (Waters). The data was compared to a standard curve generated from a set of solutions of known concentrations. The standard curve and the samples were analyzed using a HPLC using the following conditions: […]

[2] = Tablet dissolution over time in media of various pH; format: physicochemical; conditions: for Dependence of dissolution on pH of the medium: oral dosage form, pH 1 to 6.8 and deionized water; for Dissolution / Fraction of tablet dissolved: tablet
Experimental: The dissolution media used were (a) pH 1 (0.1N HCl) 50 ml of cone HCl mixed in 6 L of water; (b) pH 4.5 acetate buffer (20 mM) […] of sodium acetate trihydrate dissolved in 6 L of water, pH adjusted to 4.5 with acetic acid; (c) pH 5.5 phosphate buffer (20 mM) 16.3 g of potassium dihydrogen phosphate in 6 L of water. pH adjusted to 5.5 with NaOH; (d) pH 6.8 phosphate buffer (20 mM) 16.3 g of potassium dihydrogen phosphate in 6 L of water. pH adjusted 6.8 with NaOH. A standard dissolution protocol was used. The standard solution (0.006 mg/mL of eszopiclone free base) was prepared by weighing a known amount (˜20 mg) of the free base into a 100 mL volumetric flask. 10 mL of acetonitrile was added into the flask and sonicated until the solids dissolved completely. The solution was cooled to room temperature and made up to the 100 mL mark using media and mixed well. Dilute 3 mL to 100 mL using media. The tables were prepared by transferring 500 mL dissolution media into the 6 vessels. Blank readings were taken for all the probes using media. Standards were read for individual vessels. Probes were washed with media and then inserted back into each vessel. One tablet was transferred into each vessel. The dissolution program was started immediately and readings were taken at 305 nm for 60 min (every 1 min for 20 min and then every 10 min).
FIG. 1 depicts dissolution profiles of the eszopiclone free base at pH 1 (0.1N HCl), pH 4.5 in buffer, pH 5.5 in buffer, pH 6.8 in buffer and in deionized water. […] It can be seen that the dissolution is greater than 50% within five minutes and greater than 80% at one hour at all pH.

Row | Structure (SMILES) | pH measured at saturation [1] | Dependence of dissolution on pH of the medium ([2]; listed as L-malate salt) | Dissolution ([2]; at one hour, all pH (pH 1, 4.5, 5.5, 6.8, deionized water)) | Dissolution ([2]; within five minutes, all pH (pH 1, 4.5, 5.5, 6.8, deionized water)) | Solubility ([1]; water, ambient, equilibrated 24 hour) | Dependence of dissolution on pH of the medium ([2]; listed as eszopiclone free base) | Fraction of tablet dissolved ([2]; deionized water, at one hour) | Dissolution ([2]; pH 1 (0.1N HCl)) | Fraction of tablet dissolved ([2]; pH 6.8 buffer, at one hour)
1 | CN1CCN(C(=O)O[C@H]2c3nccnc3C(=O)N2c2ccc(Cl)cn2)CC1 [L-malate, (S)-Zopiclone L-Malate] | 3.9 | dissolve quickly and at substantially the same rate, regardless of the pH of the dissolving medium | greater than 80% | greater than 50% |  |  |  |  | 
2 | CN1CCN(C(=O)O[C@H]2c3nccnc3C(=O)N2c2ccc(Cl)cn2)CC1 [Free base, [(9S)-8-(5-chloropyridin-2-yl)-7-oxo-2,5,8-triazabicyclo[4.3.0]nona-1,3,5-trien-9-yl]-4-methyl piperazine-1-carboxylate] | 7.6 |  |  |  | 0.2^1 mgA/mL | decreases markedly as the pH rises | less than one half | rapid and complete | less than one half
